Reference: US6348445B1, “Biologically active peptides with reduced toxicity in animals and a method for preparing same” (priority 1992, dated 2002)
Converted amounts (≈) assume the structure as drawn. Read-outs that look alike come from different tables or passages of the source. Where a SMILES comes first, the peptide text is derived from it. [ ]: non-standard residue; d: D form. The star is where a group is joined. Octanoyl = CCCCCCCC(=O)*; Orn = NCCC[C@H](N)C(=O)O

Columns and labels:
C. albicans = assay type: cell-based
Method in brief: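 Peptides serially diluted 1:2 to final 0.25–256 μg/ml; inoculum 1-5×10^5 CFU/ml from mid-log culture in full-strength Mueller Hinton broth. Incubated 16-20 h at 37° C. MIC taken as lowest peptide concentration giving a clear well.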

red blood cells = assay: hemolysis of red blood cells; assay type: cell-based
Protocol: (§1) The in vitro anti-microbial activities of the methane sulfonate derivatives were determined according to the methods described in Examples 1 and 2. The activities against ATCC strains of S. aureus, E. coli, P. aeruginosa, and C. albicans, and the hemolysis of red blood cells were compared to the parent compound (Table IV). The activities for Compound 843 (Oct-SEQ ID NO:143) methane sulfonate against clinical strains of P. aeruginosa isolated from cystic fibrosis patients were compared to the parent compound (Table V). The activity for Compound 469 (Oct-SEQ ID NO:27) methane sulfonate against P. gingivalis was compared to the parent compound (Table VI).

S. mutans = assay: anaerobic anti-microbial susceptibility test (MIC); assay type: cell-based; set-up: unit not given here; settings: 24-48 hours
A. viscosus = assay: anaerobic anti-microbial susceptibility test (MIC); assay type: cell-based; settings: 24-48 hours
C. albicans ATCC 90028 = assay type: cell-based
Protocol: (§2) The procedure for the anti-bacterial assay is based upon the guidelines of the National Committee for Clinical Laboratory Standards, Document M7-T2, Volume 8, No. 8, 1988, which document is entirely incorporated herein by reference.
(§3) Stock solutions of peptides, with and without the appropriate substitutions, were prepared at a concentration of 512 μg/ml in sterile deionized distilled water and stored at −70° C.
(§4) The stock peptide solution was diluted in serial dilutions (1:2) down the wells of a microtiter plate so that the final concentrations of peptides in the wells were 0.25, 0.50, 1, 2, 4, 8, 16, 32, 64, 128 and 256 μg/ml. 1-5×10^5 CFUs/ml of either S. aureus ATCC 25923, E. coli ATCC 25922, P. aeruginosa ATCC 27853, or C. albicans, were added to the wells in full strength Mueller Hinton broth (BBL 11443) from a mid-log culture. The inoculum was standardized spectrophotometrically at 600 nm and was verified by colony counts. The plates were incubated for 16-20 hours at 37° C., and the minimal inhibitory concentration (MIC) for each peptide was determined. Minimal inhibitory concentration is defined as the lowest concentration of peptide which produces a clear well in the microtiter plate. The minimal inhibitory concentration of each of the peptides with and/or without the appropriate substitutions is given in Table I below.
as §1

[1] = system: E. coli ATCC strain 25922; assay: Minimal Inhibitory Concentration, microtiter broth dilution; assay type: cell-based
Method in brief: (§5)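 Peptides serially diluted 1:2 to final 0.25–256 μg/ml in Mueller Hinton broth, inoculated with 1-5×10^5 CFUs/ml from mid-log culture. Incubated 16-20 hours at 37° C. MIC = lowest peptide concentration giving a clear well.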

S. aureus ATCC 29213 = assay type: cell-based
[2] = system: P. aeruginosa strain ATCC 27853; assay type: cell-based
Method in brief: as §5

E. coli strain 21915-1 = assay: survival of mice inoculated intraperitoneally with live E. coli; assay type: in vivo; settings: i.v. at 1 and 5 hours post-inoculation, 10 mice
Protocol: CD-1 male mice (average body weight, 22.8g) were inoculated with live E. coli strain 21915-1 (2.3×10^5 CFU mouse) by injection intraperitoneally. Oct-(SEQ ID NO: 143)—NH2 then was injected intravenously via the tail vein at 1 and 5 hours post-inoculation. Control mice were inoculated and treated with 0.9% saline. Each different treatment group had 10 mice per group. All control mice died.

[3] = system: S.aureus strain ATCC 25923; assay: Minimal Inhibitory Concentration, microtiter broth dilution; assay type: cell-based; settings: Mueller Hinton broth, 16-20 hours at 37° C.
Text: Table I, which follows, indicates the Minimal Inhibitory Concentration (MIC) in […] of various peptides against S.aureus strain ATCC 25923(S), P. aeruginosa strain ATCC 27853(P), E. coli ATCC strain 25922(E), and C. 4albicans (CA). […] The peptides are unsubstituted at the N-terminal; substituted with an acetyl group at the N-terminal, as indicated by Ac-; substituted with an octanoyl group at the N-terminal, as indicated by Oct-; substituted with spinogosine, as indicated by Sph-; substituted with a succinyl group, as indicated by Suc-; substituted with a hexanoyl group, as indicated by Hex-; substituted with a heptanoyl group, as indicated by Hep-; substituted with a valeryl group, as indicated by Val-; substituted with a myristryl group, as indicated by Myr-; or substituted with an ibuprofyl group, as indicated by Ibu-;
as §2, §3, §4

[4] = maximal tolerated dose, single intravenous administration of Compound 1324; assay type: in vivo, mice; settings: mouse, in vivo; single intravenous bolus, CD-1 mice; read-out: MTD i.v. (maximum tolerated dose, non-lethal)
Protocol: Mice received single intravenous administrations of Compound 1324, the methane sulfonate analogue of Compound 843, and were monitored for survival for at least 4 days. There were no deaths at a dose of less than or equal to 180 mg/kg.
To determine the maximal tolerated dose (MTD) and estimate the lethal dose 50% (LD50) of Compound 1324 sodium when administered intravenously in a single-bolus in mice.
Animals: On arrival and study initiation, three groups Thirty-seven male CD-1 mice (Charles River Lab)had average body weights of 39, 28 and 28 gm, respectively.
Solution Prep: A 120 mg/ml of active Compound 1324 (active moiety corrected for) was made in saline. All concentrations from 5 mg/ml to 80 mg/ml were dilutions of the 120 mg/ml solution with saline. The highest concentration used in the intravenous administration was 20 mg/ml.
Mice were randomly assigned to one of ten groups (4 mice per group, except the highest dose group which only had one mouse). Mice were administered intravenously 10 ml/kg of either 0 (saline), 5, 6, 7, 8, 14, 16, 18, or 20 mg/ml solution for doses of […]. One mouse received 14.1 ml/kg of a 20 mg/ml solution for a dose of 282 mg/kg. Mice were monitored for survival for at least four days post-administration.

[5] = system: clinical strains of P. aeruginosa isolated from cystic fibrosis patients; assay: MIC against clinical isolates of P. aeruginosa; assay type: cell-based, Pseudomonas aeruginosa; settings: clinical isolate
Protocol: as §2, §3, §4, §1

[6] = system: lipopolysaccharide from E. coli serotype 0111:B4; assay: survival of mice after lipopolysaccharide and galactosamine; assay type: in vivo
Protocol: Oct-(SEQ ID NO: 143)—NH2 was injected intravenously into male C57BL/6J mice (average body weight 20.1 g) approximately two minutes prior to intraperitoneal injection of a solution of lipopolysaccharide (either 0.1 μg or 0.5 μg/mouse) from E. coli serotype 0111:B4 and galactosamine (8 mg/mouse). […] When these doses were administered prior to the administration of 0.1 μg lipopolysaccharide/mouse, the results were 40%, 90%, 100%, 100%, and 100% survival at five days post-lipopolysaccharide administration, respectively.

In the case of CCCCCCCC(=O)N[C@@H](CCCCN)C(=O)N[C@H](C(=O)N[C@@H](C)C(=O)NCC(=O)N[C@@H](CCCCN)C(=O)N[C@H](C(=O)N[C@@H](C)C(=O)N[C@@H](CCCCN)C(=O)N[C@H](C(=O)N[C@@H](C)C(=O)NCC(=O)N[C@@H](CCCCN)C(=O)N[C@H](C(=O)N[C@@H](C)C(=O)N[C@@H](CCCCN)C(=O)N[C@H](C(=O)N[C@@H](C)C(=O)NCC(=O)N[C@@H](CCCCN)C(=O)N[C@H](C(=O)N[C@@H](C)C(N)=O)[C@@H](C)CC)[C@@H](C)CC)[C@@H](C)CC)[C@@H](C)CC)[C@@H](C)CC)[C@@H](C)CC [Oct-(SEQ ID NO: 27)-NH2, (Oct-KIAGKIA)3-NH2)] (Octanoyl-KIAGKIAKIAGKIAKIAGKIA-NH2), the “Minimal Inhibitory Concentration CA” value (C. albicans) is reported as 16 µg/mL, the “% Hemolysis (500 μg/ml)” value (red blood cells) is reported as 100% and the “MIC S. mutans” value (S. mutans) is reported as 16. The “MIC A. viscos” value (A. viscosus) was 16 μl/ml, the “MIC C. albicans ATCC 90028” value (C. albicans ATCC 90028; ATCC 90028) was 64 µg/mL (≈ 29.2 µM) and the “MIC E. coli ATCC 25922” value ([1]; ATCC strain 25922) was 4 µg/mL (≈ 1.83 µM). For the same compound, the “Minimal Inhibitory Concentration E” value ([1]; ATCC strain 25922) was 2 µg/mL, the “MIC P. gingivalis ATTC 33277” value (P. gingivalis) was 4 µg/mL (≈ 1.83 µM) and the “MIC P. gingivalis (strain) 9-14K-1” value (P. gingivalis; anaerobic, 24-48 hours) was 4 μl/ml. The “MIC P. gingivalis (strain) 381” value (P. gingivalis; anaerobic, 24-48 hours) was 16 μl/ml, the “MIC P. gingivalis (strain) 450” value (P. gingivalis; anaerobic, 24-48 hours) was 16 μl/ml and the “MIC P. gingivalis (strain) A7A1-28” value (P. gingivalis; anaerobic, 24-48 hours) was 4 μl/ml. For the same compound, the “MIC P. gingivalis (strain) FAY-19M-1” value (P. gingivalis; anaerobic, 24-48 hours) was 4 μl/ml, the “MIC S. aureus ATCC 29213” value (S. aureus ATCC 29213; ATCC 29213) was 2 µg/mL (≈ 0.914 µM) and the “MIC P. aeruginosa ATCC 27853” value ([2]; ATCC 27853) was 4 to 8 µg/mL. The “Minimal Inhibitory Concentration P” value ([2]; ATCC 27853) was 4 µg/mL.

For CCCCCCCC(=O)N[C@@H](CCCN)C(=O)N[C@@H](CCCN)C(=O)N[C@@H](CC(C)C)C(=O)N[C@@H](CC(C)C)C(=O)N[C@@H](CCCN)C(=O)N[C@@H](CCCN)C(=O)N[C@@H](CC(C)C)C(=O)N[C@@H](CCCN)C(=O)N[C@@H](CCCN)C(=O)N[C@@H](CC(C)C)C(N)=O [Oct-(SEQ ID NO: 143)-NH2] (Octanoyl-[Orn][Orn]LL[Orn][Orn]L[Orn][Orn]L-NH2), the “survival at six days post-inoculation” value (E. coli strain 21915-1; 1 mg/kg in toto) was 20%, the “survival at six days post-inoculation” value (E. coli strain 21915-1; 5 mg/kg in toto) was 40% and the “survival at six days post-inoculation” value (E. coli strain 21915-1; 10 mg/kg in toto) was 90%. For the same compound, the “survival at six days post-inoculation” value (E. coli strain 21915-1; 20 mg/kg in toto) was 90%, the “Minimal Inhibitory Concentration CA” value (C. albicans; C. albicans, Table I) was 16 µg/mL and the “% Hemolysis (500 μg/ml)” value (red blood cells) was 25%. The “Minimal Inhibitory Concentration S” value [3] was 16 µg/mL, the MTD [4] was 20 mg/kg and the “MIC C. albicans ATCC 90028” value (C. albicans ATCC 90028; Table IV) was 64 µg/mL (≈ 50 µM). The “Minimal Inhibitory Concentration E” value ([1]; E. coli ATCC strain 25922, Table I) was 16 µg/mL, the “MIC E. coli ATCC 25922” value ([1]; Table IV) was 4 µg/mL (≈ 3.12 µM) and the “MIC Pseudomonas aeruginosa LS-31” value [5] was 16 µg/mL (≈ 12.5 µM). The “MIC Pseudomonas aeruginosa LS-40” value [5] was 4 µg/mL (≈ 3.12 µM), the “MIC Pseudomonas aeruginosa LS-43” value [5] was 2 µg/mL (≈ 1.56 µM) and the “MIC S. aureus ATCC 29213” value (S. aureus ATCC 29213; Table IV) was 16 µg/mL (≈ 12.5 µM). The “Minimal Inhibitory Concentration P” value ([2]; P. aeruginosa strain ATCC 27853, Table I) was 2 µg/mL, the “MIC P. aeruginosa ATCC 27853” value ([2]; Table IV) was 2 µg/mL (≈ 1.56 µM) and the “MIC Pseudomonas aeruginosa ATCC 27853” value ([2]; Table V) was 4 µg/mL (≈ 3.12 µM). For the same compound, the “survival at five days post-lipopolysaccharide administration” value ([6]; 5 mg/kg i.v. (by order of the list), 0.1 μg lipopolysaccharide/mouse) was 90%, the “survival at five days post-lipopolysaccharide administration” value ([6]; 5 mg/kg i.v., 0.5 μg lipopolysaccharide/mouse) was 0% and the “survival at five days post-lipopolysaccharide administration” value ([6]; 7.5 mg/kg i.v. (by order of the list), 0.1 μg lipopolysaccharide/mouse) was 100%. The “survival at five days post-lipopolysaccharide administration” value ([6]; 7.5 mg/kg i.v., 0.5 μg lipopolysaccharide/mouse) was 30%, the “survival at five days post-lipopolysaccharide administration” value ([6]; 10 mg/kg i.v. (by order of the list), 0.1 μg lipopolysaccharide/mouse) was 100% and the “survival at five days post-lipopolysaccharide administration” value ([6]; 10 mg/kg i.v., 0.5 μg lipopolysaccharide/mouse) was 0%. For the same compound, the “survival at five days post-lipopolysaccharide administration” value ([6]; 12.5 mg/kg i.v. (by order of the list), 0.1 μg lipopolysaccharide/mouse) was 100%, the “survival at five days post-lipopolysaccharide administration” value ([6]; 12.5 mg/kg i.v., 0.5 μg lipopolysaccharide/mouse) was 50% and the “survival at five days post-lipopolysaccharide administration” value ([6]; 15 mg/kg i.v., 0.5 μg lipopolysaccharide/mouse) was 60%.
